Like-named read-outs stand apart in the source and are kept apart here.
Columns and labels:
Caco-2 cells = tested on: Caco-2 cells; set-up: method as in PMID 26352530; conditions: cited from earlier work
[1] = set-up: method as in PMID 26352530; conditions: cited from earlier work
[2] = Hepatocyte clearance (mouse); assay type: in vitro ADME; conditions: mouse hepatocytes
CypD = CypD (Homo sapiens, UniProt P30405); test: Fluorescence polarization cyclophilin D binding assay; conditions: Table S7; focused SAR set; read-out: CypD Ki
Sequence of CypD (P30405 30-207): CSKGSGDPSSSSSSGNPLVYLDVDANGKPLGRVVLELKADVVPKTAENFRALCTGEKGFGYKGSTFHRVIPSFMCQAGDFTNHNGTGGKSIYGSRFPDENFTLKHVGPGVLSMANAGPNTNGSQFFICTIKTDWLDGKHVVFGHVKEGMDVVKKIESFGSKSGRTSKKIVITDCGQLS
Description: (§1) This was determined using a fluorescence polarization assay ([12]).
Fluorescence Polarization assay.
(§2) Briefly, titration of a single probe concentration
measure binding affinities.

[3] = mouse, in vivo; for Cl_obs: ip, 10 mg/kg
Description: (§3) The remaining five compounds were evaluated for plasma and brain levels in a pharmacokinetic experiment in mice.
Pharmacokinetic analysis.
(Cyprotex UK) using LCMSMS.

[4] = Hepatocyte clearance (human); assay type: in vitro ADME; conditions: human hepatocytes
[5] = mouse, in vivo; for AUC(0-inf) / AUC(0-t) / half-life: ip, 10 mg/kg
Description: as §3
Pharmacokinetic analysis.
(Cyprotex UK) using LCMSMS.

[6] = Brain tissue binding (fraction unbound); assay type: in vitro ADME; conditions: read-out: Brain tissue (fu)
Description: Table 1. Key data for lead optimization. SD, standard deviation of the mean; SE, standard error of the mean; fu, fraction unbound; ND, not determined. | column: Brain tissue (fu)

in vivo = conditions: ABH, mouse, ip, 10 mg/kg; for level at 24 h: Brain concentrations at 24 hours
Description: as §3
Pharmacokinetic analysis.
(Cyprotex UK) using LCMSMS.

hERG = hERG (Homo sapiens, UniProt Q12809); test: hERG inhibition; assay type: biochemical; conditions: for inhibition at 25 µM: hERG (% inhibition at 25 μM)
Sequence of hERG (Q12809 whole entry): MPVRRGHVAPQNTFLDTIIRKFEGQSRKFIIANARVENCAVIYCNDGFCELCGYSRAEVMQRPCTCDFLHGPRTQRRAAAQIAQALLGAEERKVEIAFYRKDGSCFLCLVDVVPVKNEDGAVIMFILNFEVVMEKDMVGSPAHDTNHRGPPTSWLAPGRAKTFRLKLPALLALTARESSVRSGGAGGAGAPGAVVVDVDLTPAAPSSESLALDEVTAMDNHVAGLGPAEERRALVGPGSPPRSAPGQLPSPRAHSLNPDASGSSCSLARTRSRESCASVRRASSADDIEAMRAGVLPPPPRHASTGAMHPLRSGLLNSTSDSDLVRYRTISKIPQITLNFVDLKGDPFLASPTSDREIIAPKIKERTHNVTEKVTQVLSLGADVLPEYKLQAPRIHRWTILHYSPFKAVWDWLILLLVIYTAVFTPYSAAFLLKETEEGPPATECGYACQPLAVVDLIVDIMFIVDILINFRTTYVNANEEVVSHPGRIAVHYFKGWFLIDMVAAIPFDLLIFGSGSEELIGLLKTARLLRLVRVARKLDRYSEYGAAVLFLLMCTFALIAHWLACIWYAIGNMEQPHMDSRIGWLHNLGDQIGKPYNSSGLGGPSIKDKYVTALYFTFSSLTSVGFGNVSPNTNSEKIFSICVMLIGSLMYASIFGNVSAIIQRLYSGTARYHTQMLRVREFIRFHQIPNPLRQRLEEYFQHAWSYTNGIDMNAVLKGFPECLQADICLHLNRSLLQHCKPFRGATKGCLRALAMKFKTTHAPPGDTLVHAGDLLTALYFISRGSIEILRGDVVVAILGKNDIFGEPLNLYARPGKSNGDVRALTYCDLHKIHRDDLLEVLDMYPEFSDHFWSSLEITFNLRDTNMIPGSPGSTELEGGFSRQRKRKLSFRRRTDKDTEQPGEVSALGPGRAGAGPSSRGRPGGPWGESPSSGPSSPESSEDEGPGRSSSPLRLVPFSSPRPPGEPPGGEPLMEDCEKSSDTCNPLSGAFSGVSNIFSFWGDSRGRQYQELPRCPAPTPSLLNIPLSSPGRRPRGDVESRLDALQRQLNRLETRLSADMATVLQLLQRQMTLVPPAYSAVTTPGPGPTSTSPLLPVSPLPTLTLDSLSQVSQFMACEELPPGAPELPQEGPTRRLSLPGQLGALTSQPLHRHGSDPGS

Cyclophilin A (CypA) = Cyclophilin A (CypA) (Homo sapiens, UniProt P62937); test: Fluorescence polarization cyclophilin A binding assay; conditions: Table S7; focused SAR set; read-out: CypA Ki
Sequence of Cyclophilin A (CypA) (P62937 whole entry): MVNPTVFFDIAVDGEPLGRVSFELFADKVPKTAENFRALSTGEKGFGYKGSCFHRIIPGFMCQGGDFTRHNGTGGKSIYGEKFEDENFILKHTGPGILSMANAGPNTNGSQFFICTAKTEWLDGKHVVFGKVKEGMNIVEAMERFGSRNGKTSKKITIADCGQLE
Description: as §1
Fluorescence Polarization assay.
as §2
measure binding affinities.
FP -probe. Enzyme, inhibitor and
(ph7.4)) supplemented with 1 mM PMSF.

[7] = Plasma protein binding (fraction unbound); assay type: in vitro ADME; conditions: read-out: Plasma protein (fu)
[8] = Pharmacokinetic study, plasma and brain levels by LC-MS/MS;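 further: ABH mice, four per group, dosed intraperitoneally, plasma and brain taken at set times after euthanasia, drug levels quantified by LC-MS/MS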
Description: as §3
Pharmacokinetic analysis.
(Cyprotex UK) using LCMSMS.

TRIM-CypA = molecular target: T1, TRIM-CypA (Homo sapiens, UniProt P62937+Q6PIZ9); assay type: cell-based; conditions: CRFK-TRIMCypA cells; 0.5-20 μM; 48 hours; GFP-positive cells by flow cytometry
T1 construct: expressed in transfected cells; host or cells: CRFK (Crandell-Rees Feline Kidney) cells transduced with MLV EXN-TRIM-CypA vector, G418 selected
T1 sequence (P62937 2-165, one chain of several): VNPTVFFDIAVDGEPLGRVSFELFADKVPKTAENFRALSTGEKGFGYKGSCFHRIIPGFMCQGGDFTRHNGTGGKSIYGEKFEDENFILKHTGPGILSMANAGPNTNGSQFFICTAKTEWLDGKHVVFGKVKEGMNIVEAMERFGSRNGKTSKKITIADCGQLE

[9] = tested on: mitochondrial permeability transition pore (mPTP); test: Calcium retention capacity (CRC) assay in isolated liver mitochondria; assay type: biochemical, rat
[10] = tested on: CRFK and CRFK-TRIMCypA cells; test: MTT viability of CRFK and CRFK-TRIMCypA cells; assay type: cell-based, Feline; conditions: 48 hours, up to 20 μM
Description: Assay for cellular CypA selectivity
bromide (MTT) assay (Sigma) was performed.
100 μL solubilisation solution (10 % SDS

SMILES | hepatocyte CLint [2] [µL/min/1e6 cells] | Cl_obs [3] | hepatocyte CLint [4] [µL/min/1e6 cells] | AUC(0-inf) [5] [µg·h/mL] | AUC(0-t) [5] [µg·h/mL] | half-life [5] [h] | fraction unbound [6] | level at time molar at 24 h (in vivo) [nM] | level at 24 h (in vivo) [ng/mL] | inhibition at 25 µM (hERG) [%] | fraction unbound [7] | also measured
COc1ccc2cc3[n+](cc2c1OC)CCc1cc2c(cc1-3)OCO2 [Berberine, berberine] |  |  |  |  |  |  |  |  |  |  |  | Caco-2 cell line permeability AP-BL (Caco-2 cells; AP-BL): 2.59 ×10⁻⁶ cm/s; Caco-2 cell line permeability BL-AP (Caco-2 cells; BL-AP): 25.16 ×10⁻⁶ cm/s; PAMPA permeability [1]: 1 to 1.2 ×10⁻⁶ cm/s
CC[C@@H]1NC(=O)[C@H]([C@H](O)[C@H](C)C/C=C/CCC[n+]2ccc(N3CCOCC3)c3ccc(C(F)(F)F)cc32)N(C)C(=O)[C@H](C(C)C)N(C)C(=O)[C@H](CC(C)C)N(C)C(=O)[C@H](CC(C)C)N(C)C(=O)[C@@H](C)NC(=O)[C@H](C)NC(=O)[C@H](CC(C)C)N(C)C(=O)[C@H](C(C)C)NC(=O)[C@H](CC(C)C)N(C)C(=O)CN(C)C1=O [JP1-138] | 9.61 | 4.43 × 10^−05 (mg/kg)/(ng/ml).hour | 7.62 | 226 | 216 | 5.81 | 0.00084 | 391 | 592 | 37.7 |  | Ki (CypD): 0.064 ± 0.016 µM; Brain AUC as % of the plasma AUC [3]: about 2%; AUC [5]: 198 µg·h/mL; Ki (Cyclophilin A (CypA)): 0.042 µM
CC[C@@H]1NC(=O)[C@H]([C@H](O)[C@H](C)C/C=C/CCC[n+]2ccc(N3CCCCC3)c3ccc(C(F)(F)F)cc32)N(C)C(=O)[C@H](C(C)C)N(C)C(=O)[C@H](CC(C)C)N(C)C(=O)[C@H](CC(C)C)N(C)C(=O)[C@@H](C)NC(=O)[C@H](C)NC(=O)[C@H](CC(C)C)N(C)C(=O)[C@H](C(C)C)NC(=O)[C@H](CC(C)C)N(C)C(=O)CN(C)C1=O [JP1-164] | 5.89 | 7.09 × 10^−05 (mg/kg)/(ng/ml).hour | 22.4 | 141 | 134 | 5.68 | 0.01 | 380 | 574 | 14.2 | 0.69 | 
CC[C@@H]1NC(=O)[C@H]([C@H](O)[C@H](C)C/C=C/CCC[n+]2ccc(N(C)C)c3ccc(C(F)(F)F)cc32)N(C)C(=O)[C@H](C(C)C)N(C)C(=O)[C@H](CC(C)C)N(C)C(=O)[C@H](CC(C)C)N(C)C(=O)[C@@H](C)NC(=O)[C@H](C)NC(=O)[C@H](CC(C)C)N(C)C(=O)[C@H](C(C)C)NC(=O)[C@H](CC(C)C)N(C)C(=O)CN(C)C1=O [JW76] | 6.81 |  | 5.62 |  |  |  |  |  |  | 16.3 | 0.0039 | level at 1 h ([8]; ABH, mouse, brain, ip, Brain ng/mL, mice, 1 h): 668 ng/mL; level at 4 h ([8]; ABH, mouse, brain, ip, Brain ng/mL, mice, 4 h): 545 ng/mL; level at 1 h ([8]; ABH, mouse, plasma, ip, Plasma (ng/mL), mice, 1 h): 50800 ng/mL; Detectability in the brain at 48 hours ([8]; longer-term pharmacokinetic study, 48 hours): not detectable; Brain ([8]; mice, 1 h): 668 ng/mL; AUC ([8]; mouse, in vivo): 67 µg·h/mL; Rescue of HIV-1 infectivity of restricting (TRIM-CypA) cells (TRIM-CypA): rescued infectivity poorly and only at 20 μM; CRC inhibition % ([9]; Table S4 / Fig. S2, rat liver mitochondria, 500 nM, (Treated-NonTreated)/NonTreated)*100): 54.7%; CRC % inhibition at 10 nM ([9]; Table S7, 10 nM): 32.9%; Toxicity to non-restricting and restricting cells (MTT) [10]: not toxic at any concentration tested; hERG activity (hERG): little hERG activity

Source: article PMC11235165, “Delocalized quinolinium-macrocyclic peptides, an atypical chemotype for CNS penetration” (Science Advances, 2024)
